Where two headings read alike, the source gives them in different places.
Key:
[1] = molecular target: T1, Fusarium oxysporum p45 proteolytic enzyme (p45 maturase, metalloprotease), SEQ ID NO:6 (Fusarium oxysporum, UniProt M1UZ70); type: biochemical
T1 construct: apparently native maturase from F. oxysporum; recombinant p45 also made in A. oryzae
Experimental: (§1) The tryptic activity is measured in microtiter plates; 100 μl samples are mixed with 100 μl of substrate (Stock: 87 mg/ml L-BAPNA (Sigma) in DMSO, diluted 50-fold in buffer) and the absorption at 405 nm is measured using a Thermomax microplate reader from Molecular Devices.
(§2) Metalloproteases contain a catalytic zinc metal center which participates in the hydrolysis of the peptide backbone. The active zinc center differentiates these proteases from calpains whose activities are dependent upon the presence of calcium. Confirmation of a protease as a metallo-protease is loss of proteolytic activity accomplished by removal of the zinc center with 1,10-phenanthroline (1 mM) followed by titration with Zn^2+ (0.1-100μM) to restore full activity.

[2] = molecular target: T2, trypsin-like Fusarium oxysporum protease (F. oxysporum DSM 2672), SEQ ID NO: 2 (Fusarium oxysporum, UniProt P35049); test: Tryptic activity (L-BAPNA) of the trypsin-like protease with or without 1,10-phenanthroline; type: biochemical
T2 construct: made in house; host or cells: Aspergillus oryzae IFO 4177 transformed with pSX183
Experimental: as §1, §2

[3] = molecular target: pro-trypsin-like Fusarium oxysporum protease (recombinant proenzyme form of the trypsin-like F. oxysporum protease) (Fusarium oxysporum DSM 2672)

Q: Which “Maturase activity upon addition of inhibitor (in words)” value ([1]; EDTA 1 mM substituted for 1,10-phenanthroline) does the source give for `O=C(O)CN(CCN(CC(=O)O)CC(=O)O)CC(=O)O` [EDTA] here?
A: Analogous results

Q: Which “Maturase activity upon addition of inhibitor (in words)” value ([1]; 1 mM 1,10-phenanthroline) does the source give for `c1cnc2c(c1)ccc1cccnc12` [1,10-phenanthroline] here?
A: halted

Q: And the “Tryptic Activity (Δ Abs/min × 10^-4) released by p45 Maturase from pro-trypsin-like F. oxysporum protease” value ([1]; 1,10-phenanthroline 1 mM, no Zn2+, without inhibitor 54.0, proenzyme alone 1.26)?
A: 2.9 Δ Abs/min × 10^-4

Q: And the “inhibition of the trypsin-like protease (in words)” value ([2]; 1,10-phenanthroline 1 mM)?
A: not inhibited

Q: What about the “Tryptic Activity (Δ Abs/min × 10^-4)” value ([2]; 1,10-phenanthroline 1 mM, no Zn2+, without inhibitor 34.0) of the same compound?
A: 33.8 Δ Abs/min × 10^-4

Q: And the “tryptic activity with inhibitor addition” value ([2]; 1,10-phenanthroline (1 mM), without inhibitor 34.0×10^-4)?
A: 33.8×10^-4 ΔAbs/min

Q: For “p45 proteolytic enzyme (maturase) from Fusarium oxysporum”, which Tryptic Activity (Δ Abs/min × 10^-4) released from the proenzyme, L-BAPNA assay [3] is on record?
A: 0.0054 Δ Abs/min

Reference: US5702934A, “Processes for producing an enzyme” (priority 1993, dated 1997)
